From article PMC11856108, “Capsaicin (But Not Other Vanillins) Enhances Estrogen Binding to Its Receptor: Implications for Power Sports and Cancers” (Life, 2025)
Where two headings read alike, the source gives them in different places.

Tests used:
[1] = target: insulin (human recombinant) (Homo sapiens, UniProt P01308); assay: Binding to insulin by ultraviolet spectroscopy; conditions: UV spectroscopy
[2] = Binding to steroid hormone by UV spectroscopy
Protocol: (§1) UV spectroscopy in a crystal plate was used to investigate whether CAP has specificity for estrogen alone or whether it can bind to other naturally occurring hormones. To start, CAP was dissolved in a 1:1 solution of water to ethanol at 1 mg/mL ( 3.27×10^−3 M ) and then diluted by thirds eight times. Next, the hormones were dissolved in a 1:1 solution of water to ethanol at a 1/100 dilution. An amount of 50 μL of each CAP dilution was added to 3 wells of a crystal plate, with one well serving as the control, with another 50 μL of 1:1 water to ethanol added, and the other two serving as experimental duplicates, with 50 μL of the prepared hormone solution added. Then, two additional wells were prepared to serve as controls: one containing 100 μL of 1:1 water to ethanol and the other containing 50 μL of prepared hormone solution and 50 μL of 1:1 water to ethanol. Finally, the plate was incubated for 1 h and read in a Spectramax UV-VIS scanning spectrophotometer, spanning wavelengths from 190 to 400 nm. Data analysis involved the subtraction of observed absorbance values from expected absorbance values generated from the control wells ([CAP + 1:1 solution] + [hormone + 1:1 solution] − [1:1 solution]) and plotting them as a function of CAP concentration. Because the solvent (1:1 solution of water–ethanol) was used as a control and subtracted from all wells, the resulting data reflected only the absorbances of the solute compounds. Since each compound has a different lambda maximal absorbance, analysis of the resulting data required finding one common wavelength at which the additions and subtractions of the spectra could be carried out and at which the absorbance of each compound was maximized.
Experiments were also performed to test whether the enhancement or antagonism observed in estradiol binding to the ESR1 might be due to vanilloid compounds binding directly to estradiol or to related steroidal hormones, perhaps protecting them from oxidation or forming a complex that prevented the estradiol binding to its receptor. No vanilloid compound bound to a measurable degree to estradiol or any other steroidal hormone tested.

insulin receptor (IR) = insulin receptor (IR) (Homo sapiens, UniProt P06213); assay: Binding to the insulin receptor by ultraviolet spectroscopy; conditions: UV spectroscopy
insulin receptor (IR), sequence (P06213 28-1382, species assumed): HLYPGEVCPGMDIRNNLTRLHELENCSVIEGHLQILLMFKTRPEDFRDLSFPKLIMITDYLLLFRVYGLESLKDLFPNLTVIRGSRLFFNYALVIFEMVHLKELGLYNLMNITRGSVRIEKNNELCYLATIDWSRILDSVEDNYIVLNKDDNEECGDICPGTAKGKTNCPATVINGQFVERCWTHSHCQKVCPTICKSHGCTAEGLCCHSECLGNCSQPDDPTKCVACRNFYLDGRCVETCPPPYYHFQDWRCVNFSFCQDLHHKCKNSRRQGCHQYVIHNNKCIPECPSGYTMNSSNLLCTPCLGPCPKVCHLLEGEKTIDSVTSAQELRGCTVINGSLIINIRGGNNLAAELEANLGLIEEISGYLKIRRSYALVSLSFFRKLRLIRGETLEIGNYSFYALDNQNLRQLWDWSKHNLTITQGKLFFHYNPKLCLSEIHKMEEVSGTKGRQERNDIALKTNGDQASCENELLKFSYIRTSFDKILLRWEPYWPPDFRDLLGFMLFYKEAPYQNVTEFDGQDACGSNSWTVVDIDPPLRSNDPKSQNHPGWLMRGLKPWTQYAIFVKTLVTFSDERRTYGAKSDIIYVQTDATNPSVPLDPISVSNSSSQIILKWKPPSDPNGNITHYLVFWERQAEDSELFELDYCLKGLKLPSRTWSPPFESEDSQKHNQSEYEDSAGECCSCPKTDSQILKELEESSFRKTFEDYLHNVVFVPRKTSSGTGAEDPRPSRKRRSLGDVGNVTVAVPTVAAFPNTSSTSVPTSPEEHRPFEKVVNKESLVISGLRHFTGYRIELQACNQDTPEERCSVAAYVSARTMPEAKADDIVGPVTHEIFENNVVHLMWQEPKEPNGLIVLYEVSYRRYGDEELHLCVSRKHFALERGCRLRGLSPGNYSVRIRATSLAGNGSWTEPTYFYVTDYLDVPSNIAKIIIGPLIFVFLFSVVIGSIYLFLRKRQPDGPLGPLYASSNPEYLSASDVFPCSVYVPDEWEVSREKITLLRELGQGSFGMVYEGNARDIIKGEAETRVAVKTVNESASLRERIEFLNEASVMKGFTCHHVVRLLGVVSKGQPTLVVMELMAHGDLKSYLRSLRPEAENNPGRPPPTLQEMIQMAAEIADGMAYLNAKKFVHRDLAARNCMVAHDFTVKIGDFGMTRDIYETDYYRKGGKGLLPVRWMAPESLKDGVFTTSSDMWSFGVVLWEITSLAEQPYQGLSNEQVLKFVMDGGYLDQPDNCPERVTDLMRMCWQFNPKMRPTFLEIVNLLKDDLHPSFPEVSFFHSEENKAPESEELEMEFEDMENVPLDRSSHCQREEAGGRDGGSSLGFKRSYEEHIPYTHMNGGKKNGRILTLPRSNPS
Protocol: as §1
[17, 19, 20, 21, 22, 23]. […] Because CAP binds to INS, it was possible that it might antagonize INS binding to its receptor. […] Two types of ultraviolet spectroscopy experiments were performed. In one, INS (1 µM) and the IR were kept constant and the concentration of CAP increased from 0.1 µM to 100 µM. In the other, the CAP (25 µM) and IR were kept constant and the concentration of INS increased from 10 nM to 10 µM. In neither experiment was any significant change in the INS binding curve observed.
CAP did bind to the ESR1 with what appears to be a high affinity (Kd = 0.9 µM) and a lower affinity (Kd = 10 µM) site. […] Other vanilloid compounds also bound to the ESR1 but with lower affinity than CAP (Figure 6). None bound to the IR.

ESR1 = target: T1, ESR1 (Homo sapiens, UniProt P03372); assay: Competitive-binding ELISA of EST-HRP binding to the estrogen receptor
T1 construct: purchased Invitrogen-Thermofisher
T1 sequence (P03372 1-595): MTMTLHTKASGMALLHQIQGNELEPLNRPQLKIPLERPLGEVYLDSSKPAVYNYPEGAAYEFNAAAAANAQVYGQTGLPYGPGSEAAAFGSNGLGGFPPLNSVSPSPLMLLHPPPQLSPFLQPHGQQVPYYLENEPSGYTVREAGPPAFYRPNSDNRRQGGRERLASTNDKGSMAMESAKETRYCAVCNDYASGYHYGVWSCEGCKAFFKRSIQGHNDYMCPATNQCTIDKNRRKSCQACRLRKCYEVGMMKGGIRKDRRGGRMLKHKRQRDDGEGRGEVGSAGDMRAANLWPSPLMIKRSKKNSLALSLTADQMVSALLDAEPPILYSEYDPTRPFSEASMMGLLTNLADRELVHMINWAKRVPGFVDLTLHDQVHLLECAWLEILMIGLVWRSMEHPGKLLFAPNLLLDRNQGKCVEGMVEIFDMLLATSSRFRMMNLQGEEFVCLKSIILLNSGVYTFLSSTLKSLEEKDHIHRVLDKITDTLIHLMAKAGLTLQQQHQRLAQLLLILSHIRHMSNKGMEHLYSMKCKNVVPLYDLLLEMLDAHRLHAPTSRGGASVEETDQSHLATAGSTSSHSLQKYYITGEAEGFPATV

[3] = target: T2, Estrogen receptor alpha (ER alpha) recombinant protein (ESR1) (Homo sapiens, UniProt P03372); assay: Binding to the estrogen receptor by ultraviolet spectroscopy; conditions: UV spectroscopy; listed as vanillin
T2 sequence (P03372 1-595): T1 sequence (P03372 1-595)

insulin (human recombinant), sequence (P01308 25-54 limits assumed): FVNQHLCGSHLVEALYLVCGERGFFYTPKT
insulin (human recombinant), sequence (P01308 90-110 limits assumed): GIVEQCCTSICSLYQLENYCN

SMILES | binding to insulin (in words) [1] | Binding (Kd) 4-Androstene-3,17-dione [2] | Binding (Kd) 5-Pregnan-3β-OL-2O-one [2] | Binding (Kd) Estradiol [2] | Binding (Kd) Estriol [2] | Binding (Kd) Progesterone [2] | Binding (Kd) Estradiol ([2]; listed as acetaminophen) | Kd ([1]; Binding (Kd) Insulin, Table 1) [µM] | Binding (Kd) Estradiol ([2]; listed as vanillic acid) | binding to the insulin receptor (in words) (insulin receptor (IR)) | binding to insulin (in words) ([1]; listed as vanillin) | effect on estradiol (EST-HRP) binding to the estrogen receptor (ESR1) | effect on estradiol (EST-HRP) binding to the estrogen receptor (ESR1; listed as VAN) | binding to the estrogen receptor (in words) [3] | Binding (Kd) Estradiol ([2]; listed as vanillin)
CC(=O)Nc1ccc(O)cc1 [Acetaminophen, acetaminophen] | Neither vanillin nor acetaminophen bound significantly to insulin | No binding | No binding | No binding | No binding | No binding | did not bind directly to estradiol | – | – | – | – | – | – | – | –
COc1cc(C(=O)O)ccc1O [Van Acid, vanillic acid] | bound almost as well as capsaicin | No binding | No binding | No binding | No binding | No binding | – | 4 | did not bind directly to estradiol | – | – | – | – | – | –
COc1cc(C=O)ccc1O [Vanillin, vanillin] | – | No binding | No binding | No binding | No binding | No binding | – | – | – | did not bind significantly | Neither vanillin nor acetaminophen bound significantly to insulin | no effect on estradiol binding | no significant effect on estradiol binding | weakly to the estrogen receptor | did not bind directly to estradiol
C[C@]12CC[C@@H]3c4ccc(O)cc4CC[C@H]3[C@@H]1CC[C@@H]2O [estradiol] | – | – | – | – | – | – | – | – | – | did not bind to the IR | – | – | – | – | –
